Results on six molecules are retold here after PMC3897169 (MedChemComm, 2013).

Molecules are shown by their SMILES.

One experiment has as its target T1, L3MBTL3 (Homo sapiens, UniProt Q96JM7).
T1 sequence (Q96JM7 225-555 limits assumed): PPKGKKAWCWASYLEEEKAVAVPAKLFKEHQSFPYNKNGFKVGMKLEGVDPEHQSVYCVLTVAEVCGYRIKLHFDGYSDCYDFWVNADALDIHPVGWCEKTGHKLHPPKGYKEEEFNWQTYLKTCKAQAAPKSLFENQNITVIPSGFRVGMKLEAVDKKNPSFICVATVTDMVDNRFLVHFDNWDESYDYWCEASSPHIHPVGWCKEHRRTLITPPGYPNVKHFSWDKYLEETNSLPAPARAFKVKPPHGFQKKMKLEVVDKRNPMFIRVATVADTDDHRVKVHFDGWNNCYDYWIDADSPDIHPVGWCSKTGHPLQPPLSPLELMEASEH
As to the kind of experiment: Isothermal titration calorimetry. Format: binding. The note with it: compared with UNC2533. A general note: In ITC the heat of successive injections is recorded.
As to `c1cc(N2CCC(N3CCCCC3)CC2)ccc1CCN1CCCC1` [compound 2], the “Fold loss in L3MBTL3 activity by ITC relative to UNC2533” value is reported as 7 fold.

Another experiment deals with T1, L3MBTL3. As to the kind of experiment: AlphaScreen methylated histone peptide competition assay. Format: binding. Particulars: compared with UNC2533; 12 and 13 after incubation time of 30 minutes. (In Alpha technology, singlet oxygen from a donor bead excites a nearby acceptor bead.)
As to `N#CC1CCN(CCc2ccc(N3CCC(N4CCCC4)CC3)cc2)C1` (stereo not shown) [compound 12], the “Fold drop in L3MBTL3 activity (AlphaScreen) relative to UNC2533” value stood at 5 fold.
For the molecule `O=C1CCN(CCc2ccc(N3CCC(N4CCCC4)CC3)cc2)C1` [compound 13], the “Fold drop in L3MBTL3 activity (AlphaScreen) relative to UNC2533” value is on record as 5 fold.
In the case of `O=C(CCc1ccc(N2CCC(N3CCCC3)CC2)cc1)N1CCCC1` [compound 8], the “Fold drop in L3MBTL3 activity (AlphaScreen) relative to UNC2533” value is given as “more than 30 fold”.
Consider `c1cc(CN2CCCC2)ccc1CCN1CCCC1` [compound 7], for which the “Fold drop in L3MBTL3 activity (AlphaScreen) relative to UNC2533” value is recorded as 20 fold.
On to `c1cc(N2CCC(N3CCCCC3)CC2)ccc1CCN1CCCC1` [compound 2], for which the “Fold drop in L3MBTL3 activity (AlphaScreen) relative to UNC2533” value stood at 9 fold.
For the molecule `c1cc(N2CCC(N3CCCC3)CC2)ccc1N1CCC(N2CCCC2)CC1` [compound 10], the “Fold drop in L3MBTL3 activity (AlphaScreen) relative to UNC2533” value was “about 5 fold”.
